The target in assay [1] is T1, UCP1 (Rattus norvegicus, UniProt P04633).
T1 construct: made in house; host or cells: Saccharomyces cerevisiae W303, vector pYeDP-UCP (gal-cyc promoter); isolated mitochondria
T1 sequence (P04633 1-307): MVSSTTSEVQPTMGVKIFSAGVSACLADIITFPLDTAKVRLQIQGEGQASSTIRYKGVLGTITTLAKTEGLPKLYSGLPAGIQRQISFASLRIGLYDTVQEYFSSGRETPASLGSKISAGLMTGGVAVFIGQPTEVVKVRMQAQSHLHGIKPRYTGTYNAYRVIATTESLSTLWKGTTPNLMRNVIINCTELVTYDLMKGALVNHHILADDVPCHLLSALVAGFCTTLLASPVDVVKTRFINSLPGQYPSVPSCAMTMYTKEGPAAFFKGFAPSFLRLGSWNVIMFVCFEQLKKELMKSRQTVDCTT
In words: Respiration rate from oxygen consumption (oxygen electrode), mitochondria that express UCP1. Format: biochemical. The settings on record: UCP1 mitochondria of S. cerevisiae; GDP 3 mM, palmitate 48 μM, FCCP 10 μM (uncoupled respiration); basal 218. On the procedure:
(§1) To isolate the mitochondria required for the subsequent experiments, yeasts of the strain Saccharomyces cerevisiae W303 that express UCP1 were inoculated into SP growth medium (0.67% nitrogen substrate, 0.1% casamino acids, 20 mg/ml tryptophan, 40 mg/ml adenine, 0.1% phosphate, 0.12% ammonium sulphate, 0.1% glucose, 2% lactic acid, pH 4.5) 36 hours before extraction of the mitochondria; 12 or 14 hours before extraction they were diluted in SG medium (0.67% nitrogen substrate, 0.1% casamino acids, 20 mg/ml tryptophan, 40 mg/ml adenine, 2% galactose pH 4.5) adjusting the optical density at 600 nm to between 0.3-0.4 absorbance units [Arechaga I, Raimbault S. et al., (1993) Cysteine residues are not essential for uncoupling protein function. Biochem. J. 296. 693-700].
The mitochondria were prepared following a procedure based on that of Guerin et al., [Guerin B, Labbe P. Somlo M (1979) Preparation of yeast mitochondria (Saccharomyces cerevisiae) with good P/O and respiratory ratios Methods Enzymol. 55: 149-159]. The protoplasts are prepared by enzymatic digestion of the cell wall with cytohelicase and after their homogenization mitochondria are isolated by differential centrifugation [Arechaga I., Raimbault S. et al., (1993) Cysteine residues are not essential for uncoupling protein function. Biochem. J. 296. 693-700]. […]

In assay [2] the test system is Control mitochondria. In words: Respiration rate from oxygen consumption (oxygen electrode), Control mitochondria. The class given is biochemical, Saccharomyces cerevisiae. The settings on record: CONTROL mitochondria of S. cerevisiae; GDP 3 mM, palmitate 48 μM, FCCP 10 μM (uncoupled respiration); basal 144.
Assay [3] addresses T1, UCP1. As to the kind of experiment: Respiration rate by monitoring NADH fluorescence (NADH consumption), mitochondria that express UCP1. Format: biochemical. The note with it: GDP 3 mM, palmitate 48 μM. On the procedure: as §1, with “693-700]. […]” for “693-700].”
The second method, which is the object of the present invention, is based on determining the respiration rate by measuring the consumption of NAD(P)H. All the assays were performed on a 96-well micro-titre standardized plate (Nunc., Denmark). […] Fluorescence measurements were done using a POLAR star Galaxy plate reader (BMG Laboratories OmbH, Offenburg, Germany). […] Changes in the fluorescence signal were determined every 30 seconds in each well with an average of 6-9 readings for each measurement. […] From these values, fluorescence values for the suspension of mitochondria in the absence of NADH (blank) were subtracted. […]

Structures are written as SMILES.

`Nc1nc2c(ncn2[C@@H]2O[C@H](COP(=O)(O)OP(=O)(O)O)[C@@H](O)[C@H]2O)c(=O)[nH]1` [GDP]: the Oxygen consumption in assay [1] is 149 nmoles of oxygen consumed per minute and per mg of protein; in assay [2] it was 155 nmoles of oxygen consumed per minute and per mg of protein. Besides, the “Change in rate of NADH consumption compared to basal levels (in words)” value in assay [3] is on record as “reduced compared to basal levels”.

The values are drawn from patent US20020177543A1, “Method for determining the activity of uncoupling proteins (UCPs) by monitoring NAD(P)H consumption” (priority 2000, published 2002).
